Assay results reported in article PMC12030314, “Biomarker-Driven Pharmacokinetics and Efficacy of Polymyxin B in Critically Ill Patients with XDR-GN Pneumonia” (Pharmaceuticals, 2025).
Where a SMILES comes first, the peptide text is derived from it. Bridges are numbered along the chain shown (N, C = ends). [ ]: non-standard residue; d: D form. The star is where a group is joined. X1 = CC[C@H](C)CCCCC(=O)*; Dab = NCC[C@H](N)C(=O)O

What was measured:
[1] = system: XDR-GN bacterial nosocomial pneumonia; test: Clinical efficacy (treatment success) of PMB; format: in vivo, human; conditions: 27 enrolled patients; iv 100 mg loading, 50 mg q12h
From the text: The decision to administer PMB was made by the attending physicians. Patients with conditions that could alter the PK of PMB, who had rapidly declining or fluctuating renal function (serum creatinine ± 50% since the start of therapy, who could affect the removal of drugs from the body), who were pregnant (hormone levels, increased blood volume, and other factors affecting drug processes), who had severe burns/head/spinal cord injury (high metabolic status, fluid redistribution, reduced plasma protein levels, and other factors affecting drug processes), who had cystic fibrosis (decreased distribution of PMB in lungs), or who were severely under- or overweight (±40% of ideal body weight, changes of fat volume, and body surface area affecting drug processes) were excluded. The study was approved by the Ethics Committees of Peking Union Medical College Hospital and the Declaration of Helsinki. Written informed consent was obtained from all patients or their legal representatives.
The primary PD response was evaluated by PK/PD indices. […] The secondary PD response was evaluated by clinical parameters. […] The percentage of patients who achieved the PK/PD targets or treatment success was calculated. Variables potentially related to clinical efficacy were assessed. […] The optimal cutoff point for the PK/PD indices was calculated with the Youden index.

plasma protein = test: Binding of PMB in plasma, rapid equilibrium dialysis; format: in vitro ADME; conditions: human, rapid equilibrium dialysis (Pierce RED), pooled patient plasma pH 7.4, 300 μL against PBS pH 7.4, 37 °C, triplicate, mean, read-out: plasma protein-binding ratio (converted)
Method: The plasma protein binding of PMB was determined by rapid equilibrium dialysis device purchased from Thermo Scientific™ (Pierce RED, CAS90006, Rockford, IL, USA). For each patient, three plasma samples (totaling approximately 1 ml) were pooled (pH adjusted to 7.4), and the test was performed in triplicate. For each, 300 μL was dialyzed against an equal volume of isotonic phosphate-buffered saline (pH 7.4) at 37 °C for 4 h. PMB concentrations were determined, and the extent of protein binding was calculated as 1 minus the ratio of the PMB concentration in the buffer to that in the plasma and is expressed as a percentage.

[2] = Nephrotoxicity during PMB therapy; format: in vivo, human
Method: Patient characteristics and laboratory data, including age, sex, weight, medical history, Acute Physiology And Chronic Health Evaluation (APACHE) II score, Sequential Organ Failure Assessment (SOFA) score, estimated creatinine clearance, arterial blood gas analysis, life support interventions, infection site, and type of pathogen, were recorded before PMB administration. The anti-infection therapeutic regimen, course, and incidence of PMB-related adverse reactions were recorded during the study. The creatinine clearance rate (CCr) was calculated with the formula: Ccr = (140 − age) × weight (kg)/[72 × serum creatinine (mg/dL)] for male and Ccr = (140 − age) × weight(kg)/[85 × serum creatinine (mg/dL)] for female. Nephrotoxicity was defined as an increase in serum creatinine of ≥0.3 mg/dL within 48 h or an increase in serum creatinine to ≥1.5 times higher than baseline.

For `CC[C@H](C)CCCCC(=O)N[C@@H](CCN)C(=O)N[C@H](C(=O)N[C@@H](CCN)C(=O)N[C@H]1CCNC(=O)[C@H]([C@@H](C)O)NC(=O)[C@H](CCN)NC(=O)[C@H](CCN)NC(=O)[C@H](CC(C)C)NC(=O)[C@@H](Cc2ccccc2)NC(=O)[C@H](CCN)NC1=O)[C@@H](C)O` [PMB, polymyxin B] (X1-[Dab]T[Dab][Dab][Dab][dF]L[Dab][Dab]T; lactam 4-C), the “treatment success (response rate)” value [1] was 81.48%, the fraction unbound at 4 h (plasma protein) was 0.145 and the Nephrotoxicity ([2]; Total (n = 27), serum creatinine increase ≥0.3 mg/dL within 48 h or ≥1.5 times baseline) was 4 (14.81) n (%). The “number of patients who suffered from nephrotoxicity” value ([2]; when PMB medication was administered, 27 patients) was “four”.
